Data from patent publication US9974776B2, “Estrogen receptor beta agonists for use in treating mesothelioma” (Karo Pharma AB, priority 2013, dated 2018).
“Also recorded” adds a separate entry of the source.

Key:
[1] = system: MMP cells; assay: Proliferation assay (wash-off experiment) in MMP cells; assay type: cell-based, human; settings: 10 nM 2 hours, 50 μM cisplatin 24 hours
Experimental: (§1) Cells were seeded at a density of 10×10^4 cells/well in 6-well plates in RPMI medium supplemented with 10% FBS, 100 μg/ml streptomycin and 10 μg/ml penicillin and incubated over-night at 37° C. in a humidified environment containing 5% CO2 to allow adherence. Following treatment cells were trypsinized and stained with Trypan blue. The number of cells considered viable (unstained cells) was counted in a Bürker haemocytometer within 5 minutes after staining.
(§2) Cell cultures were pretreated with Compound (I) for 1-16 hours (depending on experiment) followed by wash-off and then replenished with normal growth medium±cisplatin, pemetrexed or cisplatin/pemetrexed. Total incubation time was 24-72 hours (depending on experiment). Control cultures were maintained in normal growth medium without added drug. The number of viable cells was determined as described for the proliferation assay.
50 μM cisplatin was added to MMP cell cultures pre-treated for 2 hours with 10 nM Compound (I) (wash-off experiment). The number of viable cells at 24 hours was determined as described for the proliferation assay above. Control cultures were maintained in normal growth medium; growth medium plus Compound (I) (10 nM); and growth medium plus cisplatin (50 μM).

[2] = system: PARP1 cleavage; assay: Western blot of PARP1 cleavage in REN cells; assay type: cell-based, human
Experimental: (§3) Cells were extracted with 1% NP-40 lysis buffer (1% NP-40, 150 mM NaCl, 50 mM Tris-HCl pH 8.5 mM EDTA, 10 mM NaF, 10 mM Na4P2O7, 0.4 mM Na3VO4) with freshly added protease inhibitors (10 μg/ml leupeptin, 4 μg/ml pepstatin and 0.1 Unit/ml aprotinin). For protein extraction from tissues, ˜100 mg of each sample were homogenized, using a Potter-Elvehjem homogenizer device, in 1% NP-40 lysis buffer. Lysates were centrifuged at 13.000×g for 10 minutes at 4° C. and the supernatants were collected and assayed for protein concentration with the Bio-Rad protein assay method.
(§4) Proteins were separated by SDS-PAGE under reducing conditions. Following SDS-PAGE, proteins were transferred to nitrocellulose, reacted with specific antibodies and then detected with peroxidase-conjugate secondary antibodies and chemioluminescent ECL reagent. Densitometric analysis was performed using the GS 250 Molecular Image (Bio-Rad).
Levels of PARP1, cleaved PARP1, AKT and phosphorylated AKT in REN cells treated for 24 hours with cisplatin (25, 50 and 100 μM) or pre-treated 2 hours with Compound (I) (10 nM) followed by wash-off and continued growth in normal medium±cisplatin (25, 50 and 100 μM), for an additional 24 hours were also determined by Western blot analysis and relative densitometry. Total AKT and Tubulin staining were used for normalization. PARP1 cleavage was analysed as it is an indicator of apoptotic cell death. As increased AKT activity has been implicated in the control of proliferation, apoptosis and cisplatin resistance (Pinton G., et al, PLoS One (2012) 7:e36856), AKT activation status following different treatments was also analysed.

[3] = system: MET5A cells; assay: Proliferation assay in non-malignant mesothelial MET5A cells; assay type: cell-based
Experimental: as §1, §2

[4] = system: PARP1 cleavage; assay: Western blot of PARP1 cleavage in MET5A cells; assay type: cell-based; settings: 10 nM 2 hours pre-treatment, cisplatin 25, 50, 100 μM
Experimental: as §3, §4
Levels of PARP1, cleaved PARP1, AKT and phosphorylated AKT in the MET5A cell cultures at 24 hours were also determined by Western blot analysis and relative densitometry.

[5] = system: AKT phosphorylation; assay: Western blot of AKT phosphorylation in REN cells; assay type: cell-based, human; settings: 10 nM 2 hours pre-treatment, ± cisplatin
Experimental: as §3, §4
Levels of PARP1, cleaved PARP1, AKT and phosphorylated AKT in REN cells treated for 24 hours with cisplatin (25, 50 and 100 μM) or pre-treated 2 hours with Compound (I) (10 nM) followed by wash-off and continued growth in normal medium±cisplatin (25, 50 and 100 μM), for an additional 24 hours were also determined by Western blot analysis and relative densitometry. […] PARP1 cleavage was analysed as it is an indicator of apoptotic cell death. […]

[6] = system: REN cells; assay: Cell cycle analysis (propidium iodide, flow cytometry) in REN cells; assay type: cell-based, human; settings: 10 nM 2 hours pre-treatment, then 100 μM cisplatin 24 hours
Experimental: For cell cycle/apoptosis analysis, 5×10^5 cells were seeded in tissue culture plates and treated with 100 μM cisplatin for 24 hours or pre-treated for 2 hours with 10 nM Compound (I) followed by wash-off and continued growth in normal medium±100 μM cisplatin, for additional 24 hours at 37° C. in a 5% CO2 atmosphere. After incubation, detached and suspended cells were harvested in complete RPMI and centrifuged at 500×g for 10 minutes. Pellets were washed with PBS, fixed in ice-cold 75% ethanol at 4° C., treated with […] RNAse A for 1 hour at 37° C., stained with 25 μg/mL propidium iodide and finally analyzed by using a flow cytometer FACS (Becton Dickinson, San Jose, Calif., USA) and Modfit software (Verity Software House, Topsham, Me., USA).
REN cells were treated for 24 hours with 100 μM cisplatin or pre-treated 2 hours with 10 nM Compound (I) followed by wash-off and continued growth in normal medium±100 μM cisplatin, for an additional 24 hours. Cell cycle analysis was performed as described above. Control cultures were maintained in normal growth medium. After treatments, cells were stained with propidium iodide and analysed for cellular DNA content by flow cytometry.

SMILES: Cc1noc(C)c1-c1c(/C(N)=N/O)c2ccccc2n1-c1ccc(O)cc1 [Compound (I)]
- anti-proliferative effect in MMP cells, pre-treatment then cisplatin [1]: enhanced anti-proliferative effect of cisplatin was observed; also recorded: synergistic growth inhibition compared to Compound (I) or cisplatin alone
- appearance of cleaved PARP1, pre-treatment then cisplatin ([2]; 10 nM 2 hours prior to cisplatin (25, 50, 100 μM) 24 hours): greatest effect on the appearance of cleaved PARP1
- PARP1 cleavage, single agent ([2]; agent alone): neither cisplatin nor Compound (I) alone resulted in significant PARP1 cleavage
- effect on cisplatin toxicity in MET5A cells ([3]; 10 nM 2 hours pre-treatment, wash-off, cisplatin 25, 50, 100 μM 24 hours): protective effect was observed when Compound (I) pre-treatment was combined with low doses of cisplatin; also recorded: diminished and/or counteracted the toxicity of cisplatin
- MET5A cell proliferation or viability, alone ([3]; 10 nM 2 hours, wash-off, normal medium 24 hours): no effect on MET5A cell proliferation or viability
- inhibition of proliferation, MET5A cells ([3]; 10 nM single agent, 24 and 48 hours, high endogenous ERβ): no inhibitory effect was observed
- percentage of cleaved PARP1 in MET5A cells [4]: reduced the percentage of cleaved PARP1 in cells exposed to all concentrations of cisplatin
- AKT phosphorylation in REN cells [5]: significantly reduced AKT phosphorylation both in the absence and in the presence of cisplatin
- cell cycle phase distribution [6]: significant and efficient blockage of the cell cycle in the G0/G1 phase and inhibition of cells entering the S-phase
- percentage of dead cells [6]: significant higher percentage of dead cells
